# Results from ChEMBL document CHEMBL4346705, “(±)-trans-Dihydronarciclasine and (±)-trans-dihydrolycoricidine analogues modified in their ring A: Evaluation of their anticancer activity and a SAR study” (2019).
# Columns and labels:
# Format in all cases: functional
# DU-145 = assay: Antiproliferative activity against human DU145 cells assessed as cell viability at 10^-5 M incubated for 48 hrs by sulforhodamine B assay relative to control; conditions: DU-145, 48 h, read-out: Activity
# SK-MEL-5 = assay: Antiproliferative activity against human SK-MEL-5 cells assessed as cell viability at 10^-5 M incubated for 48 hrs by sulforhodamine B assay relative to control; conditions: SK-MEL-5, 48 h, read-out: Activity
# MDA-MB-468 = assay: Antiproliferative activity against human MDA-MB-468 cells assessed as cell viability at 10^-5 M incubated for 48 hrs by sulforhodamine B assay relative to control; conditions: MDA-MB-468, 48 h, read-out: Activity
# SNB-75 = assay: Antiproliferative activity against human SNB75 cells assessed as cell viability at 10^-5 M incubated for 48 hrs by sulforhodamine B assay relative to control; conditions: SNB-75, 48 h, read-out: Activity
# IGROV-1 = assay: Antiproliferative activity against human IGROV1 cells assessed as cell viability at 10^-5 M incubated for 48 hrs by sulforhodamine B assay relative to control; conditions: IGROV-1, 48 h, read-out: Activity
# A549 = assay: Antiproliferative activity against human A549 cells assessed as cell viability at 10^-5 M incubated for 48 hrs by sulforhodamine B assay relative to control; conditions: A549, 48 h, read-out: Activity
# HCC 2998 = assay: Antiproliferative activity against human HCC2998 cells assessed as cell viability at 10^-5 M incubated for 48 hrs by sulforhodamine B assay relative to control; conditions: HCC 2998, 48 h, read-out: Activity
# HOP-92 = assay: Antiproliferative activity against human HOP92 cells assessed as cell viability at 10^-5 M incubated for 48 hrs by sulforhodamine B assay relative to control; conditions: HOP-92, 48 h, read-out: Activity
# M14 = assay: Antiproliferative activity against human M14 cells assessed as cell viability at 10^-5 M incubated for 48 hrs by sulforhodamine B assay relative to control; conditions: M14, 48 h, read-out: Activity
# OVCAR-3 = assay: Antiproliferative activity against human OVCAR3 cells assessed as cell viability at 10^-5 M incubated for 48 hrs by sulforhodamine B assay relative to control; conditions: OVCAR-3, 48 h, read-out: Activity
# OVCAR-4 = assay: Antiproliferative activity against human OVCAR4 cells assessed as cell viability at 10^-5 M incubated for 48 hrs by sulforhodamine B assay relative to control; conditions: OVCAR-4, 48 h, read-out: Activity
# HOP-62 = assay: Antiproliferative activity against human HOP62 cells assessed as cell viability at 10^-5 M incubated for 48 hrs by sulforhodamine B assay relative to control; conditions: HOP-62, 48 h, read-out: Activity
# MCF7 = assay: Antiproliferative activity against human MCF7 cells assessed as cell viability at 10^-5 M incubated for 48 hrs by sulforhodamine B assay relative to control; conditions: MCF7, 48 h, read-out: Activity
# MDA-MB-231 = assay: Antiproliferative activity against human MDA-MB-231 cells assessed as cell viability at 10^-5 M incubated for 48 hrs by sulforhodamine B assay relative to control; conditions: MDA-MB-231, 48 h, read-out: Activity
# COLO 205 = assay: Antiproliferative activity against human COLO205 cells assessed as cell viability at 10^-5 M incubated for 48 hrs by sulforhodamine B assay relative to control; conditions: COLO 205, 48 h, read-out: Activity
# MDA-MB-435 = assay: Antiproliferative activity against human MDA-MB-435 cells assessed as cell viability at 10^-5 M incubated for 48 hrs by sulforhodamine B assay relative to control; conditions: MDA-MB-435, 48 h, read-out: Activity
# SF-268 = assay: Antiproliferative activity against human SF268 cells assessed as cell viability at 10^-5 M incubated for 48 hrs by sulforhodamine B assay relative to control; conditions: SF-268, 48 h, read-out: Activity
# BT-549 = assay: Antiproliferative activity against human BT549 cells assessed as cell viability at 10^-5 M incubated for 48 hrs by sulforhodamine B assay relative to control; conditions: BT-549, 48 h, read-out: Activity
# RPMI-8226 = assay: Antiproliferative activity against human RPMI8226 cells assessed as cell viability at 10^-5 M incubated for 48 hrs by sulforhodamine B assay relative to control; conditions: RPMI-8226, 48 h, read-out: Activity
# HL-60(TB) = assay: Antiproliferative activity against human HL-60(TB) cells assessed as cell viability at 10^-5 M incubated for 48 hrs by sulforhodamine B assay relative to control; conditions: HL-60, 48 h, read-out: Activity
# HT-29 = assay: Antiproliferative activity against human HT-29 cells assessed as cell viability at 10^-5 M incubated for 48 hrs by sulforhodamine B assay relative to control; conditions: HT-29, 48 h, read-out: Activity
# HCT-15 = assay: Antiproliferative activity against human HCT15 cells assessed as cell viability at 10^-5 M incubated for 48 hrs by sulforhodamine B assay relative to control; conditions: HCT-15, 48 h, read-out: Activity
# U-251 = assay: Antiproliferative activity against human U251 cells assessed as cell viability at 10^-5 M incubated for 48 hrs by sulforhodamine B assay relative to control; conditions: U-251, 48 h, read-out: Activity
# SK-MEL-28 = assay: Antiproliferative activity against human SK-MEL-28 cells assessed as cell viability at 10^-5 M incubated for 48 hrs by sulforhodamine B assay relative to control; conditions: SK-MEL-28, 48 h, read-out: Activity
# KM12 = assay: Antiproliferative activity against human KM12 cells assessed as cell viability at 10^-5 M incubated for 48 hrs by sulforhodamine B assay relative to control; conditions: KM12, 48 h, read-out: Activity
# LOX IMVI = assay: Antiproliferative activity against human LOXIMVI cells assessed as cell viability at 10^-5 M incubated for 48 hrs by sulforhodamine B assay relative to control; conditions: read-out: Activity
# CAKI-1 = assay: Antiproliferative activity against human Caki1 cells assessed as cell viability at 10^-5 M incubated for 48 hrs by sulforhodamine B assay relative to control; conditions: CAKI-1, 48 h, read-out: Activity
SMILES,viability at 10 µM (DU-145) [%],viability at 10 µM (SK-MEL-5) [%],viability at 10 µM (MDA-MB-468) [%],viability at 10 µM (SNB-75) [%],viability at 10 µM (IGROV-1) [%],viability at 10 µM (A549) [%],viability at 10 µM (HCC 2998) [%],viability at 10 µM (HOP-92) [%],viability at 10 µM (M14) [%],viability at 10 µM (OVCAR-3) [%],viability at 10 µM (OVCAR-4) [%],viability at 10 µM (HOP-62) [%],viability at 10 µM (MCF7) [%],viability at 10 µM (MDA-MB-231) [%],viability at 10 µM (COLO 205) [%],viability at 10 µM (MDA-MB-435) [%],viability at 10 µM (SF-268) [%],viability at 10 µM (BT-549) [%],viability at 10 µM (RPMI-8226) [%],viability at 10 µM (HL-60(TB)) [%],further results
COc1cc2c(c(OC)c1OC)C(=O)NC1C2CC(O)C(O)C1O (racemic),110,104,102,102,111,98.4,101,91.4,98.5,112,107,102,96.1,106,108,110,103,110,102,99.3,viability at 10 µM (HT-29): 107%; viability at 10 µM (HCT-15): 104%; viability at 10 µM (U-251): 98.9%; viability at 10 µM (SK-MEL-28): 111%; viability at 10 µM (KM12): 108%; viability at 10 µM (LOX IMVI): 97.7%; viability at 10 µM (CAKI-1): 94.1%
COc1cc2c(c3c1OCCO3)C(=O)NC1C2CC(O)C(O)C1O (racemic),103,101,99.5,100,107,93.7,99.9,77.7,104,101,108,100,97.3,103,111,110,98.3,98.3,100,96.7,viability at 10 µM (HT-29): 102%; viability at 10 µM (HCT-15): 102%; viability at 10 µM (U-251): 100%; viability at 10 µM (SK-MEL-28): 106%; viability at 10 µM (KM12): 95%; viability at 10 µM (LOX IMVI): 101%; viability at 10 µM (CAKI-1): 93.4%
CCCOc1cc2c(cc1OCC)C1CC(O)C(O)C(O)C1NC2=O (racemic),110,100,112,95.3,103,107,106,110,103,112,107,104,99,118,110,105,97.6,97.1,104,101,viability at 10 µM (HT-29): 107%; viability at 10 µM (HCT-15): 112%; viability at 10 µM (U-251): 98.5%; viability at 10 µM (KM12): 108%; viability at 10 µM (LOX IMVI): 96.7%; viability at 10 µM (CAKI-1): 95.9%
COc1c2c(cc3c1C(=O)NC1C3CC(O)C(O)C1O)OCCO2 (racemic),107,99,93.1,99.3,109,96.5,106,91.6,105,104,105,99.9,93.9,109,103,108,97.9,99.5,102,95.4,viability at 10 µM (HT-29): 106%; viability at 10 µM (HCT-15): 102%; viability at 10 µM (U-251): 100%; viability at 10 µM (SK-MEL-28): 106%; viability at 10 µM (KM12): 99.1%; viability at 10 µM (LOX IMVI): 101%; viability at 10 µM (CAKI-1): 94%
CCOc1cc2c(c(OC)c1OCC)C(=O)NC1C2CC(O)C(O)C1O (racemic),106,102,96.2,98.8,112,84.3,107,86.4,107,102,105,104,97.6,107,116,107,95.4,101,101,86.8,viability at 10 µM (HT-29): 98.3%; viability at 10 µM (HCT-15): 99.5%; viability at 10 µM (U-251): 95.4%; viability at 10 µM (SK-MEL-28): 105%; viability at 10 µM (KM12): 103%; viability at 10 µM (LOX IMVI): 98.4%; viability at 10 µM (CAKI-1): 90.1%
CCOc1cc2c(c(OCC)c1OCC)C(=O)NC1C2CC(O)C(O)C1O (racemic),113,107,107,93,108,95.8,107,82.8,103,104,105,102,95.6,121,115,104,99.5,108,102,96.1,viability at 10 µM (HT-29): 104%; viability at 10 µM (HCT-15): 104%; viability at 10 µM (U-251): 101%; viability at 10 µM (SK-MEL-28): 107%; viability at 10 µM (KM12): 103%; viability at 10 µM (LOX IMVI): 98.7%; viability at 10 µM (CAKI-1): 94.2%
O=C1NC2C(CC(O)C(O)C2O)c2cc3c(cc21)OCCO3 (racemic),114,102,107,98.3,103,109,109,101,98.9,111,107,103,98.6,109,111,107,101,98.3,107,101,viability at 10 µM (HT-29): 105%; viability at 10 µM (HCT-15): 103%; viability at 10 µM (U-251): 101%; viability at 10 µM (KM12): 108%; viability at 10 µM (LOX IMVI): 97.8%; viability at 10 µM (CAKI-1): 94.4%
